Here are results for six compounds from ChEMBL document CHEMBL1201862, “PubChem BioAssay data set” (2004).

Some test systems named below: A498; CCRF-CEM; COLO 205; EKVX; HCC 2998; LOX IMVI; MCF7; MDA-MB-435; MOLT-4; NCI-H522; NCI/ADR-RES; OVCAR-3; OVCAR-5; OVCAR-8; PC-3; RPMI-8226; SF-268; SN12C; SNB-19; U-251.
Holding throughout (test): DTP human tumour cell line panel, 48 h

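Dose response: 5 concentrations. Exposure: 48 h. Format: 96-well plates. Endpoint: linear interpolation; highest concentration if not reached. GI50 = concentration required for 50% inhibition of growth.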 Active and inactive are the calls of the source. Rule as the data show it: active = GI50 up to about 1.1 µM and inactive = higher.

In general, GI50 refers to the concentration giving 50% growth inhibition.

For the compound `O=C(NCCCCCCNC(=O)n1cc(F)c(=O)[nH]c1=O)NCCCOCCOCCOCCOCCOCCOCCOCCOCCOCCOCCOCCOCCOCCOCCOCCOCCOCCOCCOCCOCCOCCCNC(=O)C(O)C(O)C(O)C(O)CO` (stereo not given), the GI50 with A498 is 6.95 µM (inactive); with CCRF-CEM, 43.9 µM (inactive); in the experiment with COLO 205, 23.8 µM (inactive); with EKVX, 85.9 µM (inactive); in the experiment with HCC 2998, 5.66 µM (inactive); with LOX IMVI, 16.3 µM (inactive). The GI50 was 4.72 µM (inactive) with MCF7; 55.1 µM (inactive) in the experiment on MDA-MB-435; 33.9 µM (inactive) in the experiment on MOLT-4; > 90.2 µM (inactive) with NCI-H522; 69.8 µM (inactive) in the experiment with NCI/ADR-RES; 55.5 µM (inactive) in the experiment with OVCAR-3. The GI50 in the experiment with OVCAR-5 is > 96.4 µM (inactive); in the experiment on OVCAR-8, 39.2 µM (inactive); in the experiment on PC-3 it was 64.3 µM (inactive); in the experiment on RPMI-8226 it was 5.85 µM (inactive); with SF-268 it was 55.5 µM (inactive); with SN12C it was 80 µM (inactive). In addition, the GI50 is 84.7 µM (inactive) in the experiment on SNB-19 and 70.6 µM (inactive) in the experiment with U-251.

Regarding `O=c1cc(N2CCN(c3cc(=O)n4ccccc4n3)CC2)oc2ccccc12`, the GI50 was > 84.5 µM (inactive) with A498; 6.7 µM (inactive) in the experiment on CCRF-CEM; 61 µM (inactive) in the experiment on COLO 205; 31.2 µM (inactive) with EKVX; 33.5 µM (inactive) with HCC 2998; > 100 µM (inactive) in the experiment on LOX IMVI. Moreover, the GI50 with MCF7 is > 70.5 µM (inactive); in the experiment on MDA-MB-435, 55 µM (inactive); in the experiment with MOLT-4 it was 33.6 µM (inactive); with NCI-H522 it was 29.8 µM (inactive); in the experiment with NCI/ADR-RES, > 66.8 µM (inactive); in the experiment on OVCAR-3 it was > 100 µM (inactive). Also, the GI50 was > 100 µM (inactive) with OVCAR-5; > 51.4 µM (inactive) in the experiment with OVCAR-8; > 100 µM (inactive) in the experiment on PC-3; 23 µM (inactive) with RPMI-8226; 25.6 µM (inactive) with SF-268; > 92.7 µM (inactive) in the experiment on SN12C. In addition, the GI50 in the experiment on SNB-19 is > 55.5 µM (inactive); with U-251, > 58.1 µM (inactive).

For `COC(=O)c1cc2c(cc1Cl)Sc1nnc(Nc3ccccc3)n1S2(=O)=O`, the GI50 in the experiment with A498 was 5.55 µM (inactive); in the experiment with CCRF-CEM, 2.3 µM (inactive); with COLO 205 it was 6.52 µM (inactive); in the experiment with EKVX, 7.1 µM (inactive); with HCC 2998, 1.91 µM (inactive); with LOX IMVI, 7.98 µM (inactive). In addition, the GI50 was 2.86 µM (inactive) in the experiment on MCF7; 7.48 µM (inactive) with MDA-MB-435; 2.47 µM (inactive) in the experiment with MOLT-4; 1.68 µM (inactive) with NCI-H522; 8.47 µM (inactive) with NCI/ADR-RES; 1.75 µM (inactive) with OVCAR-3. Moreover, the GI50 in the experiment with OVCAR-5 is 7.93 µM (inactive); with OVCAR-8, 3.58 µM (inactive); in the experiment with PC-3 it was 3.08 µM (inactive); in the experiment with RPMI-8226, 1.62 µM (inactive); in the experiment on SF-268, 2.26 µM (inactive); in the experiment on SN12C, 6.31 µM (inactive). Also, the GI50 was 2.28 µM (inactive) in the experiment on SNB-19 and 2.76 µM (inactive) with U-251.

Turning to `Cc1nc2ccccc2n1CCc1nc2ccccc2s1`, the GI50 in the experiment with A498 was 14.8 µM (inactive); with CCRF-CEM it was 14 µM (inactive); in the experiment with COLO 205 it was 26.9 µM (inactive); in the experiment with EKVX, 7.23 µM (inactive); in the experiment on HCC 2998 it was 38.3 µM (inactive); in the experiment with LOX IMVI, 64.9 µM (inactive). Also, the GI50 in the experiment with MCF7 was 16.6 µM (inactive); in the experiment on MDA-MB-435, 57.8 µM (inactive); in the experiment with MOLT-4, 12.9 µM (inactive); in the experiment with NCI-H522 it was 15.6 µM (inactive); with NCI/ADR-RES, 40.6 µM (inactive); in the experiment with OVCAR-3, 17.8 µM (inactive). Besides, the GI50 in the experiment with OVCAR-5 was > 100 µM (inactive); in the experiment with OVCAR-8, 41.3 µM (inactive); in the experiment on PC-3 it was 39.9 µM (inactive); in the experiment on RPMI-8226 it was 15 µM (inactive); in the experiment on SF-268, 53.2 µM (inactive); in the experiment with SN12C it was > 100 µM (inactive). Also, the results for the GI50 in the experiment on SNB-19 and in the experiment on U-251 were > 100 µM (inactive) and 75 µM (inactive), respectively.

With `COC(=O)C1=C([C@H]2COC(C)(C)O2)[C@H]2C[C@@H]1[C@@H]1OC(C)(C)O[C@@H]12`, the GI50 in the experiment on A498, with CCRF-CEM, with COLO 205, with EKVX, in the experiment on HCC 2998 and in the experiment on LOX IMVI was > 100 µM (inactive) throughout. The GI50 with MCF7, with MDA-MB-435, in the experiment with MOLT-4, in the experiment with NCI-H522, in the experiment on NCI/ADR-RES and in the experiment with OVCAR-3 was > 100 µM (inactive) in each case. Moreover, the GI50 in the experiment on OVCAR-5, with OVCAR-8, in the experiment on PC-3, in the experiment with RPMI-8226, with SF-268 and in the experiment on SN12C was > 100 µM (inactive) in each case. The GI50 in the experiment with SNB-19 and with U-251 was > 100 µM (inactive) throughout.

As for `Cc1cc(O)c2c3c(ccc2c1)C(=O)c1c(O)cccc1C3=O` [TETRANGULOL], the GI50 in the experiment on A498 is > 100 µM (inactive); in the experiment on CCRF-CEM, 30.1 µM (inactive); in the experiment on COLO 205, 3.25 µM (inactive); in the experiment on EKVX it was 7.14 µM (inactive); in the experiment with HCC 2998, 5.15 µM (inactive); in the experiment on LOX IMVI, 5.57 µM (inactive). Moreover, the GI50 in the experiment on MCF7 was 3.3 µM (inactive); in the experiment on MDA-MB-435 it was 0.179 µM (active); with MOLT-4, 5.48 µM (inactive); in the experiment with NCI-H522, 0.957 µM (active); with NCI/ADR-RES, 5.97 µM (inactive); in the experiment with OVCAR-3, 0.397 µM (active). In addition, the GI50 with OVCAR-5 was > 51.3 µM (inactive); in the experiment with OVCAR-8, 9.68 µM (inactive); in the experiment on PC-3, 16.1 µM (inactive); in the experiment on RPMI-8226 it was > 28.5 µM (inactive); with SF-268, 5.66 µM (inactive); with SN12C, 72.6 µM (inactive). For the same compound, the figures for the GI50 with SNB-19 and in the experiment with U-251 were 19.9 µM (inactive) and 21 µM (inactive), respectively.
